Measurements: patent publication US20100179205A1, “Composition for Enhanced Antiparasitic Activity” (Intervet International B.V., priority 2006, published 2010)

Test system: Rhipicephalus sanguineus nymphs
Experiment: Efficacy against Rhipicephalus sanguineus on infested guinea pigs, topical bath treatment
Type: in vivo
Details: for average number of detached ticks per animal (detachment effect): bath treatment, 24 hours after treatment, guinea pigs infested with 100 nymphs; for overall acaricidal efficacy against R. sanguineus-nymphs: compared to the control group; for average number of engorged ticks per animal: engorged ticks dropping from d4 to d8; for average number of dead ticks after detachment: mortality assessed 24 hours after detachment
Experimental: Efficacy against Rhipicephalus sanguineus
Guinea pigs were infested with 100 nymphs of Rhipicephalus sanguineus (d0). Guinea pigs (n=3) were treated topically (bath treatment) with atipamezol (7.8 ppm), amitraz (2.0 ppm; 3.9 ppm) and two combinations of both (7.8 ppm atipamezol+2.0 ppm amitraz; 7.8 ppm atipamezol+3.9 ppm amitraz), respectively (d1). The control group remained untreated.
The number of detached ticks was assessed 1, 3, 6 and 24 hours after treatment (detachment effect).
The mortality of detached ticks was assessed 24 hours after detachment.
The average number of engorged ticks dropping per animal from d4 to d8 was assessed to determine the overall acaricidal efficacy compared to the control group.

SMILES: Cc1ccc(N=CN(C)C=Nc2ccc(C)cc2C)c(C)c1 [amitraz, 1,5-di-(2,4-dimethylphenyl)-3-methyl-1,3,5-triazapenta-1,4-diene]
- average number of detached ticks per animal (detachment effect) (2.0 ppm amitraz): 29.7
- overall acaricidal efficacy against R. sanguineus-nymphs (2.0 ppm amitraz): 84%
- average number of engorged ticks per animal (2.0 ppm amitraz): 8.7
- average number of dead ticks after detachment (2.0 ppm amitraz): 24.3
- average number of detached ticks per animal (detachment effect) (3.9 ppm amitraz): 43.7
- overall acaricidal efficacy against R. sanguineus-nymphs (3.9 ppm amitraz): 100%
- average number of engorged ticks per animal (3.9 ppm amitraz): 0
- average number of dead ticks after detachment (3.9 ppm amitraz): 39.7

SMILES: CCC1(c2cnc[nH]2)Cc2ccccc2C1 [atipamezol, 4(5)-(2,3-dihydro-2-ethyl-1H-inden-2-yl)imidazole]
- average number of detached ticks per animal (detachment effect) (7.8 ppm atipamezol): 2.0
- overall acaricidal efficacy against R. sanguineus-nymphs (7.8 ppm atipamezol): 63%
- average number of engorged ticks per animal (7.8 ppm atipamezol): 20.7
- average number of dead ticks after detachment (7.8 ppm atipamezol): 1.3
- acaricidal/insecticidal effect (in words) (atipamezole alone): does not show an acaricidal/insecticidal effect
